{"source": "patent US8846746B2", "about": "“Pyrazole compound and pharmaceutical use thereof” (Japan Tobacco Inc., priority 2011, dated 2014)"}
{"biological_target": "human SGLT1 (Homo sapiens (Human), UniProt P13866)", "sequence (P13866 whole entry)": "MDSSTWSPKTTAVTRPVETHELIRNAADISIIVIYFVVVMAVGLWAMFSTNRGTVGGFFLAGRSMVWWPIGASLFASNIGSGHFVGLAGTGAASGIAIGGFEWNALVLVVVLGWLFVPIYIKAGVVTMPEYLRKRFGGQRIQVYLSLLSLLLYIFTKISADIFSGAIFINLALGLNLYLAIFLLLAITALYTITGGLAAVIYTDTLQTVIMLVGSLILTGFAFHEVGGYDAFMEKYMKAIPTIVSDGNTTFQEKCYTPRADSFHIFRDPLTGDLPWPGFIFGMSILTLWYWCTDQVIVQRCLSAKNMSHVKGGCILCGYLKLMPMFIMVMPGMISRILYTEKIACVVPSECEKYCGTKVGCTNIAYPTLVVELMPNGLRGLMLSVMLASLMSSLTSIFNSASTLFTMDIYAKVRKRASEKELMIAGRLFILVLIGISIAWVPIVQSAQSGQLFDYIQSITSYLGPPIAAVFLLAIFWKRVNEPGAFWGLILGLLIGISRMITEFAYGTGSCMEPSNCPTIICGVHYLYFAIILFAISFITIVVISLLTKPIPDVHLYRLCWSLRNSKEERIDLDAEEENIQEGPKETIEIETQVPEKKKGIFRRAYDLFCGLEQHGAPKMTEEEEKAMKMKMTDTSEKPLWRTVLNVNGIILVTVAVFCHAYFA", "assay": "SGLT1 inhibitory activity: 14C-AMG uptake into CHO-K1 cell line stably expressing human SGLT1", "format": "cell-based", "settings": "14C-AMG uptake, CHO-K1 cells stably expressing human SGLT1", "procedure,_shortened": "(§1)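 Human SGLT1 was stably expressed in CHO-K1 cells. Cells were first held 20 min in sodium-free buffer, then exposed to compound in Na(+)/BSA buffer with tracer and AMG (2 mM in the added solution).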", "units": {"IC50": "nM"}}
{"smiles": "COc1cccc(-n2nc(NC(=O)[C@@H]3CNC(=O)C3)cc2-c2cccc(COCC(F)(F)F)c2)c1F", "note": "[Example 480]", "IC50": 6.8}
{"smiles": "CCOc1cccc(-n2nc(NC(=O)[C@@H]3CNC(=O)C3)cc2-c2cccc(COCC(F)(F)F)c2)c1F", "note": "[Example 481]", "IC50": 8.7}
{"smiles": "CC(C)Oc1cccc(-n2nc(NC(=O)[C@@H]3CNC(=O)C3)cc2-c2cccc(COCC(F)(F)F)c2)c1F", "note": "[Example 482]", "IC50": 12}
{"smiles": "COCCOc1cccc(-n2nc(NC(=O)[C@@H]3CNC(=O)C3)cc2-c2cccc(COCC(F)(F)F)c2)c1F", "note": "[Example 483]", "IC50": 59}
{"smiles": "COc1cccc(-n2nc(NC(=O)[C@@H]3CNC(=O)C3)cc2-c2cccc(CO[C@H](C)C(F)(F)F)c2)c1F", "note": "[Example 484]", "IC50": 4.2}
{"smiles": "CCOc1cccc(-n2nc(NC(=O)[C@@H]3CNC(=O)C3)cc2-c2cccc(CO[C@H](C)C(F)(F)F)c2)c1F", "note": "[Example 485]", "IC50": 4.1}
{"smiles": "CC(C)Oc1cccc(-n2nc(NC(=O)[C@@H]3CNC(=O)C3)cc2-c2cccc(CO[C@H](C)C(F)(F)F)c2)c1F", "note": "[Example 486]", "IC50": 6.5}
{"smiles": "COCCOc1cccc(-n2nc(NC(=O)[C@@H]3CNC(=O)C3)cc2-c2cccc(CO[C@H](C)C(F)(F)F)c2)c1F", "note": "[Example 487]", "IC50": 23}
{"smiles": "O=C1C[C@H](C(=O)Nc2cc(-c3cc(F)cc(COCC(F)(F)F)c3)n(-c3ccccc3)n2)CN1", "note": "[Example 488]", "IC50": 18}
{"smiles": "COCc1cccc(-n2nc(NC(=O)[C@@H]3CNC(=O)C3)cc2-c2cccc(COCC(F)(F)F)c2)c1", "note": "[Example 489]", "IC50": 11}
{"smiles": "CCCc1cccc(-c2cc(NC(=O)[C@@H]3CNC(=O)C3)nn2-c2cccc(OCCCSC)c2)c1", "note": "[Example 490]", "IC50": 7.6}
{"smiles": "CCCc1cccc(-c2cc(NC(=O)[C@@H]3CNC(=O)C3)nn2-c2cccc(OCC3(C)COC3)c2)c1", "note": "[Example 491]", "IC50": 6.5}
{"smiles": "CCCc1cccc(-c2cc(NC(=O)[C@@H]3CNC(=O)C3)nn2-c2cccc(OCCCS(C)(=O)=O)c2)c1", "note": "[Example 492]", "IC50": 19}
{"smiles": "CCCc1cccc(-c2cc(NC(=O)[C@@H]3CNC(=O)C3)nn2-c2cccc(C=C(C)C)c2)c1", "note": "[Example 493]", "IC50": 8.2}
{"smiles": "C/C=C/c1cccc(-n2nc(NC(=O)[C@@H]3CNC(=O)C3)cc2-c2cccc(CCC)c2)c1", "note": "[Example 494]", "IC50": 9.1}
{"smiles": "CCCc1cccc(-c2cc(NC(=O)[C@@H]3CNC(=O)C3)nn2-c2cccc(C#CC(C)(C)C)c2)c1", "note": "[Example 495]", "IC50": 22}
{"smiles": "CCCc1cccc(-c2cc(NC(=O)[C@@H]3CNC(=O)C3)nn2-c2cccc(CC(C)C)c2)c1", "note": "[Example 496]", "IC50": 6.9}
{"smiles": "CCCc1cccc(-c2cc(NC(=O)[C@@H]3CNC(=O)C3)nn2-c2cccc(CCC)c2)c1", "note": "[Example 497]", "IC50": 3.3}
{"smiles": "CCCc1cccc(-c2cc(NC(=O)[C@@H]3CNC(=O)C3)nn2-c2cccc(CCC(C)(C)C)c2)c1", "note": "[Example 498]", "IC50": 70}
{"smiles": "O=C1C[C@H](C(=O)Nc2cc(-c3cccc(CNCC(F)(F)F)c3)n(-c3ccccc3)n2)CN1", "note": "[Example 501]", "IC50": 69}
{"smiles": "O=C1C[C@H](C(=O)Nc2cc(-c3cccc(OC(F)(F)F)c3)n(-c3ccc(F)cc3)n2)CN1", "note": "[Example 502]", "IC50": 81}
{"smiles": "O=C1C[C@H](C(=O)Nc2cc(-c3cccc(OC(F)(F)F)c3)n(-c3cccc(Cl)c3)n2)CN1", "note": "[Example 504]", "IC50": 23}
{"smiles": "O=C1C[C@H](C(=O)Nc2cc(-c3cccc(COCC(F)(F)F)c3)n(-c3cccc(Cl)c3)n2)CN1", "note": "[Example 505]", "IC50": 11}
{"smiles": "C[C@@H](OCc1cccc(-c2cc(NC(=O)[C@@H]3CNC(=O)C3)nn2-c2cccc(Cl)c2)c1)C(F)(F)F", "note": "[Example 506]", "IC50": 4.7}
{"biological_target": "human SGLT1 (Homo sapiens (Human), UniProt P13866)", "assay": "SGLT1 inhibitory activity: 14C-AMG uptake into CHO-K1 cell line stably expressing human SGLT1", "format": "cell-based", "settings": "CHO-K1, at 0.1 uM", "procedure,_shortened": "as §1", "units": {"inhibition at 0.1 µM": "%"}}
{"smiles": "COCCOc1cccc(-n2nc(NC(=O)[C@@H]3CNC(=O)C3)cc2-c2cccc(OC(F)(F)F)c2)c1F", "note": "[Example 479]", "inhibition at 0.1 µM": 46}
{"smiles": "CC(C)(C)C#Cc1cccc(-c2cc(NC(=O)[C@@H]3CNC(=O)C3)nn2-c2ccccc2)c1", "note": "[Example 499]", "inhibition at 0.1 µM": 4}
{"smiles": "CCCc1cccc(-c2cc(NC(=O)[C@@H]3CNC(=O)CN3)nn2-c2ccccc2)c1", "note": "[Example 500]", "inhibition at 0.1 µM": 19}
{"smiles": "O=C1C[C@H](C(=O)Nc2cc(-c3cccc(COCC(F)(F)F)c3)n(-c3cc(Cl)ccc3F)n2)CN1", "note": "[Example 503]", "inhibition at 0.1 µM": -17}
